Laboratory results from US12226404B2, “Methods for making compositions for pulmonary administration” (Board of Regents, the University of Texas System, priority 2007, dated 2025).
Values after ≈ are worked out from the molar mass of the structure shown. Values joined by “and” are separate entries in the source; they are usually repeats but may differ in a detail not shown here. Identical values can stand only once.

Columns and labels:
[1] = Evaluation of rodent dosing apparatus with nebulized ITZ colloidal suspension, in vivo lung concentration; design: species or system outbred ICR mice; details: individual mice, 5 min nebulization
From the text: As used herein, the term “pre-clinical rodent dosing apparatus” refers to the apparatus reported by J. T. McConville, P. Sinswat, J. Tam, K. P. Johnston and R. O. Williams III, In vitro and in vivo validation of a high-concentration pre-clinical rodent dosing apparatus for inhalation, Proceedings of the American Association of Pharmaceutical Scientists, San Antonio, TX, October, 2006, relevant portions incorporated herein by reference. An animal dosing chamber was designed which consisted of hollow tubing (20×4.5 cm; nominal wall thickness of 0.4 cm) with four 1.75 cm adapter holes drilled at 7 cm intervals (2 holes along each side). The adapter holes were constructed to accept rodent restraint tubes from the Battelle® toxicology testing unit. A standard itraconazole (ITZ) colloidal suspension was nebulized into the apparatus for 5 minutes using a micro-pump nebulizer. Atomized droplets containing ITZ were driven into the chamber at a flow rate of 1 L/min. ITZ concentrations were measured in vitro at the 4 adapter ports, and in vivo from the lungs of 8 outbred-ICR mice in the appropriate mice restraining tubes at the adapter ports.
Example 11. […] ITZ concentrations were measured in vitro at the 4 adapter ports, and in vivo from the lungs of male outbred ICR mice in the appropriate mice restraining tubes at the adapter ports. […]

[2] = Equilibrium solubility of TAC in modified simulated lung fluid with 0.02% DPPC; type: physicochemical; details: modified simulated lung fluid (SLF) with 0.02% DPPC, 37 °C, fassgf or other biorelevant, thermodynamic from solid, modified simulated lung fluid 0.02% DPPC
[3] = adult patients; cited from earlier work
[4] = BET specific surface area analysis; type: physicochemical
Procedure: As used herein, the term “BET Analysis” refers to a method for measuring the surface area of the exposed surface of a solid sample on the molecular scale. The BET (Brunauer, Emmet, and Teller) theory is typically used to determine the area of solids. Commonly, samples are prepared by heating and simultaneously evacuating or flowing gas over the sample to remove the liberated impurities. The prepared samples are then cooled with liquid nitrogen and analyzed by measuring the volume of gas (typically N2 or Kr) adsorbed at specific pressures. Krypton gas is often used when the measured surface is expected to be less than 2 m^2/g (typically pharmaceutical samples and natural organic materials). The skilled artisan will recognize that several types of instruments may be used for measuring surface area, which depends upon the extent of the surface or the gas required to achieve the best results. […]
BET Specific Surface Area Analysis. Specific surface area was measured using a Nova 2000 v. […] The data recorded were then analyzed according to BET theory using NOVA Enhanced Data Reduction Software v. […]
Example 3. […] Specific surface area was measured using a Nova 2000 v 6.11 instrument (Quantachrome Instruments, Boynton Beach, FL). […] The data recorded were then analyzed according to BET theory using NOVA Enhanced Data Reduction Software v. […]

[5] = Dissolution testing below equilibrium solubility (sink) in modified simulated lung fluid with 0.02% DPPC; type: physicochemical; details: SLF 0.02% DPPC
Procedure: Dissolution Testing at Below Equilibrium Solubility. Dissolution testing at below equilibrium solubility was performed on the URF powder samples using a United States Pharmacopeia (USP) 27 Type 2 dissolution apparatus (VanKel VK6010 Dissolution Tester with a Vanderkamp VK650A heater/circulator, Varian, Inc. Palo Alto, CA). […] The dissolution media was maintained at 37.0±0.2° C. and stirred at a constant rate of 50 rpm. Samples (1 mL) were withdrawn at 10, 20, 30, 60 and 120 minute time points, filtered using a 0.45 μm GHP Acrodisc filter (VWR, Inc., West Chester, PA) and analyzed using a Shimadzu LC-10 liquid chromatograph (Shimadzu Corporation, Kyoto, Japan) equipped with an Alltech ODS-2, 5 μm C18 column (Alltech Associates, Inc., Deerfield, IL). The mobile phase consisted of a 70:30 (v/v) ACN: Water mixture, used at a flow rate of 1 mL/min. The maximum absorbance was measured at wavelength λmax=214 nm.
Example 5. […] Samples (1 mL) were withdrawn at 10, 20, 30, 60, and 120 minute time points, filtered using a 0.45 μm GHP Acrodisc filter (VWR, Inc. Westchester, PA), and analyzed using a Shimadzu LC-10 liquid chromatograph (Shimadzu Corporation, Kyoto, Japan) equipped with an Altech ODS-2, 5 μm C18 column (Altech Associates, Deerfield, IL). […] The maximum absorbance was measured at wavelength λ=214 nm.

solubility thermodynamic [2]	Specific Surface Area ([4]; Table 2)	Surface Area (BET) ([4]; URF study, Table 4)	dissolution of TAC ([5]; at 1 hr, 37° C.)	dissolution of TAC ([5]; in 30 minutes, sink conditions)	SMILES	ITZ Conc. in Lung Tissue [1]	average oral bioavailability [3]
					CCC(C)n1ncn(-c2ccc(N3CCN(c4ccc(OCC5COC(Cn6cncn6)(c6ccc(Cl)cc6Cl)O5)cc4)CC3)cc2)c1=O (stereo not shown) [ITZ, itraconazole]	21.6 µg/g and 20.2 µg/g and 18.3 µg/g and 13.5 µg/g and 15.9 µg/g and 18.6 µg/g and 19.2 µg/g and 22.7 µg/g	
~6.8 µg/mL (≈ 8.46 µM)	0.533 m^2/g	0.53 m^2/g	30%	30%	C=CC[C@@H]1/C=C(\C)C[C@H](C)C[C@H](OC)[C@H]2O[C@@](O)(C(=O)C(=O)N3CCCC[C@H]3C(=O)O[C@H](/C(C)=C/[C@@H]3CC[C@@H](O)[C@H](OC)C3)[C@H](C)[C@@H](O)CC1=O)[C@H](C)C[C@@H]2OC [unprocessed TAC, Tacrolimus]		approximately 25%
